According to patent US11242327B2, “Analgesic compounds” (RECURIUM IP HOLDINGS, LLC, priority 2017, dated 2022):
Counter-ions that a name gives are not always drawn. Like-named read-outs stand apart in the source and are kept apart here.

Columns and labels:
Type in all cases: in vivo
[1] = Bioavailability Test (rat pharmacokinetics); details: for F: PO 30 mg/kg vs IV 3 mg/kg; for Vd: read-out: Vdss
Description: Oral bioavailability of compounds of Formulae (Ie), (Ih), (Ik), and (Ir), or a pharmaceutically acceptable salt of any of the foregoing, were evaluated in fasted male Sprague-Dawley (SD) rats weighing 200-225g. Compounds were dosed at 3 mg/kg (IV) and 30 mg/kg (PO). Unless otherwise noted, compounds were dissolved in 0.9% saline for IV dosing and 100% sterile water for PO dosing. Pharmacokinetic parameters were determined using Phoenix WinNonlin (v7.0). […]

[2] = test system: male Sprague-Dawley rats; assay: UVB Inflammatory Pain Test (thermal hyperalgesia); details: rat, oral; for paw withdrawal latency, 1 h: 1 h after dosing; for paw withdrawal latency, 2 h: 2 h after dosing; for paw withdrawal latency, 4 h: 4 h after dosing
Description: UVB irradiation to the surface of the hind paw was used to induce cutaneous inflammatory pain in non-fasted male Sprague-Dawley rats weighing 175-300 g. On Day −3, animals were restrained and the plantar surface of the left hind paw was exposed to 350 mJoules/cm^2 of UVB irradiation using a narrow band UVB light source (Daavlin®, Bryan, Ohio). Following UVB irradiation, animals were returned to their home cage. Thermal hyperalgesia was assessed prior to dosing and approximately 1, 2, and 4 hours after dosing on Day 0 using a radiant heat plantar test apparatus (IITC Life Sciences©; Woodland Hills, Calif.). Animals were placed in individual acrylic chambers on a glass platform warmed to 30±2° C. and allowed to acclimate to their surroundings for a minimum of 15 minutes before testing. The stimulus was presented to the plantar surface and the timer was activated. The stimulus intensity was set such that pre-injury paw withdrawal latencies were approximately 12-18 seconds. Paw withdrawal latency values were recorded at the first observed nocifensive behavior (paw withdrawal, flinching, biting and/or licking). Three paw withdrawal latencies were measured for each hind paw per time point. The mean of the 3 values was taken as the paw withdrawal latency for that time point. A maximum cutoff latency of 30 seconds was used to prevent injury to the animal. The mean and standard error of the mean (SEM) were determined for each paw for each treatment group at each time point. Test compounds were administered orally at concentrations of 3, 10, 30 or 100 mg/kg; celecoxib was administered orally at a concentration of 30 mg/kg; and acetaminophen was administered orally at a concentration of 300 mg/kg. The control group received the vehicle (sterile water). In Table 4, ‘A’ designates >8 seconds of paw withdrawal latency, ‘B’ designates >6 and <8 seconds of paw withdrawal latency, and ‘C’ designates <6 seconds of paw withdrawal latency.
The results provided in Table 4 are for oral administration in rats. […] Furthermore, while acetaminophen was dosed at 300 mg/kg, compounds of Formulae (Ie), (Ih) and (Ik), or a pharmaceutically acceptable salt of any of the foregoing, were dosed at 3 mg/kg, 10 mg/kg and 100 mg/kg.

[3] = test system: male Sprague-Dawley rats; assay: Formalin Paw Test, rat, oral; details: 30 mg/kg; for Early Phase, seconds of paw licking: early/acute phase (0-10 minutes); for Late Phase, seconds of paw licking: late/tonic phase (10-35 minutes)
Description: One test compound or the vehicle was administered to each rat or mouse in each test group (8 rats or mice per group). Non-fasted male Sprague-Dawley rats weighing 200-225 g or non-fasted male ICR mice weighing 23±3 g were used. […] Responses were measured every 5 minutes after the formalin injection for 35 minutes. The results in Table 2 are for oral administration in rat and the results in Table 3 are for intraperitoneal administration in mouse. In Tables 2 and 3, 'A' designates <70 seconds of paw licking, 'B' designates >70 and <165 seconds of paw licking, and 'C' designates >165 seconds of paw licking.

[4] = test system: male Sprague-Dawley rats; assay: Spinal Nerve Ligation (SNL) Neuropathic Pain Test; details: rat, oral, 100 mg/kg
Description: Neuropathy was induced in non-fasted male Sprague-Dawley rats weighing 75-100 g by surgically ligating the 4th and 5th lumbar spinal nerves (L4 and L5), a procedure also known as spinal nerve ligation (SNL). Animals were placed in individual acrylic chambers on a metal mesh surface and allowed to acclimate to their surroundings for a minimum of 15 minutes before testing. Mechanical sensitivity was assessed using 8 Semmes-Weinstein filaments (Stoelting©; Wood Dale, Ill., USA) with varying stiffness (0.4, 0.6, 1.0, 2.0, 4.0, 6.0, 8.0, and 15 g) according to an up-down method to determine 50% response thresholds. Each filament was presented perpendicular to the plantar surface with sufficient force to cause slight buckling against the paw and held for approximately 6 seconds or until a positive response is noted (paw sharply withdrawn). Testing was initiated with the 2.0 g filament. In the absence of a paw withdrawal response, the next stronger stimulus was presented. In the event of paw withdrawal, the next weaker stimulus was used. This process was repeated until 4 responses after the initial change in response (no response to positive response or positive response to no response) were obtained. […] The 50% response threshold was calculated using the formula: 50% response threshold (g)=(10^(Xf+kδ))/10,000;
Xf=value (in log units) of the final von Frey filament used;
k=tabular value for the pattern of positive/negative responses (See Chaplan, et al. “Quantitative Assessment of Tactile Allodynia in the Rat Paw” J. Neurosci. Meth. 53.1 (1994): 56-63);
[…] =mean difference (in log units) between stimuli.
The mean and standard error of the mean (SEM) were determined for each paw for each treatment group at each time point. Thresholds were determined prior to surgery and again 14 days later. After 14 days, test or control compounds were administered and thresholds were again determined 1, 2, and 4 hours after compound administration. Median response thresholds in compound-treated animals were compared to those in vehicle treated animals to determine anti-allodynic efficacy of test and control compounds. Test compounds were administered orally at concentrations of 10, 30 or 100 mg/kg and gabapentin was administered orally at a concentration of 100 mg/kg. The control group received the vehicle (sterile water). In Table 7, ‘A’ designates a 50% threshold of ≥8 grams, ‘B’ designates a 50% threshold of ≥6 and <8 grams, and ‘C’ designates a 50% threshold of <6 grams.
The results provided in Table 7 are for oral administration in rats.

[5] = test system: male Sprague-Dawley rats; assay: Post-Incisional (Brennan) Pain Test; details: rat, subcutaneously, 10 mg/kg
Description: Incisional pain was induced in non-fasted male Sprague-Dawley rats weighing 180-300 g by making a 1-cm plantar incision in the left hind paw and is designed to mimic pain and sensitivity similar to what is reported by patients after surgery. Dosing occurred at the time of incision and spontaneous pain was measured 4 and 24 hours post-dosing using a cumulative pain score. The unrestrained animals were placed on a metal mesh platform and allowed to acclimate for about 15 min/ Each animal was closely observed during a 1-min period repeated every 5 min for 1 h (12 times total). Depending on the position in which the foot was found during the scoring period, a score of 0, 1, or 2 was given. Full weight bearing of the foot (score=0) was present if the skin on the plantar surface of the paw wound was blanched or distorted by the mesh. If the foot was completely off the mesh, or one or more instances of licking or flinching was observed, a score of 2 was recorded and the licking or flinching was noted but not counted. If the plantar surface of the paw touched the mesh without blanching or distorting, a score of 1 was given. The sum of the 12 scores obtained during the 1 h session was calculated (maximum score=24) for each animal. Observations were made during hours 4 and 24. Test articles were administered orally at concentrations of 10, 30 or 100 mg/kg and ketoprofen was administered subcutaneously at a concentration of 10 mg/kg. The control group received the vehicle (sterile water). In Table 6, ‘A’ designates a cumulative pain score of ≤11, ‘B’ designates >11 and ≤16, and ‘C’ designates >16.
The results provided in Table 6 are for oral administration in rats.

[6] = male, Sprague-Dawley, in vivo, IV 3 mg/kg, 0.9% saline
[7] = male, Sprague-Dawley, in vivo, PO 30 mg/kg, sterile water
[8] = male, Sprague-Dawley, in vivo, IV 3 mg/kg, DMSO, PEG400, and 30% HPβCD (5/20/75)
[9] = male, Sprague-Dawley, in vivo, PO 30 mg/kg, PEG400, PVP, Tween 80, 0.5% CMC in water (9/0.5/0.5/90)

| Structure (SMILES) | F [1] [%] | AUC(0-inf) [1, 6] [µM·h] | clearance [1, 6] [mL/min/kg] | half-life [1, 6] [h] | Vd [1, 6] [L/kg] | AUC(0-inf) [1, 7] [µM·h] | Cmax [1, 7] [µM] | Tmax [1, 7] [h] | half-life [1, 7] [h] | paw withdrawal latency, 1 h ([2]; 3 mg/kg) | paw withdrawal latency, 2 h ([2]; 3 mg/kg) | paw withdrawal latency, 4 h ([2]; 3 mg/kg) | paw withdrawal latency, 1 h ([2]; 10 mg/kg) | paw withdrawal latency, 2 h ([2]; 10 mg/kg) | paw withdrawal latency, 4 h ([2]; 10 mg/kg) | paw withdrawal latency, 1 h ([2]; 30 mg/kg) | paw withdrawal latency, 2 h ([2]; 30 mg/kg) | paw withdrawal latency, 4 h ([2]; 30 mg/kg) | Early Phase, seconds of paw licking [3] | Late Phase, seconds of paw licking [3] | also measured |
| --- | --- | --- | --- | --- | --- | --- | --- | --- | --- | --- | --- | --- | --- | --- | --- | --- | --- | --- | --- | --- | --- |
| Cl.O=C(O)CNC12CC(C(F)(F)F)(C1)C2 [Compound 6, (3-(trifluoromethyl)bicyclo[1.1.1]pentan-1-yl)glycine hydrochloride] | 134 | 1.8 | 121 | 0.15 | 0.79 | 29 | 32 | 0.22 | 1.6 | C (<6 seconds of paw withdrawal latency) | B (>6 and <8 seconds of paw withdrawal latency) | A (>8 seconds of paw withdrawal latency) | B (>6 and <8 seconds of paw withdrawal latency) | B (>6 and <8 seconds of paw withdrawal latency) | B (>6 and <8 seconds of paw withdrawal latency) | A (>8 seconds of paw withdrawal latency) | B (>6 and <8 seconds of paw withdrawal latency) | B (>6 and <8 seconds of paw withdrawal latency) | A (<70 seconds of paw licking) | B (>70 and <165 seconds of paw licking) | paw withdrawal latency, 1 h ([2]; 100 mg/kg): A (>8 seconds of paw withdrawal latency); paw withdrawal latency, 2 h ([2]; 100 mg/kg): A (>8 seconds of paw withdrawal latency); paw withdrawal latency, 4 h ([2]; 100 mg/kg): B (>6 and <8 seconds of paw withdrawal latency) |
| O=C(CO)NC12CC(C(F)(F)F)(C1)C2 [Compound 7, 2-Hydroxy-N-(3-(trifluoromethyl)bicyclo[1.1.1]pentan-1-yl)acetamide] | 138 | 9 | 27 | 2.3 | 2.5 | 119 | 67 | 0.19 | 2.5 | B (>6 and <8 seconds of paw withdrawal latency) | B (>6 and <8 seconds of paw withdrawal latency) | B (>6 and <8 seconds of paw withdrawal latency) | C (<6 seconds of paw withdrawal latency) | C (<6 seconds of paw withdrawal latency) | B (>6 and <8 seconds of paw withdrawal latency) | B (>6 and <8 seconds of paw withdrawal latency) | B (>6 and <8 seconds of paw withdrawal latency) | B (>6 and <8 seconds of paw withdrawal latency) | A (<70 seconds of paw licking) | B (>70 and <165 seconds of paw licking) | paw withdrawal latency, 1 h ([2]; 100 mg/kg): C (<6 seconds of paw withdrawal latency); paw withdrawal latency, 2 h ([2]; 100 mg/kg): C (<6 seconds of paw withdrawal latency); paw withdrawal latency, 4 h ([2]; 100 mg/kg): B (>6 and <8 seconds of paw withdrawal latency) |
| CC(F)(F)c1csc(C23CC(N)(C2)C3)n1 [Compound 25, 3-(4-(1,1-difluoroethyl)thiazol-2-yl)bicyclo[1.1.1]pentan-1-amine hydrochloride] | – | – | – | – | – | – | – | – | – | – | – | – | – | – | – | – | – | – | A (<70 seconds of paw licking) | A (<70 seconds of paw licking) | F ([1]; vehicles of footnote a): 115%; AUC(0-inf) [1, 8]: 13 µM·h; clearance [1, 8]: 17 mL/min/kg; half-life [1, 8]: 3.7 h; Vd [1, 8]: 3.2 L/kg; Cmax [1, 9]: 24 µM; Tmax [1, 9]: 1.2 h; AUC(0-t) ([1]; male, Sprague-Dawley, in vivo, PO 30 mg/kg, PEG400, PVP, Tween 80, 0.5% CMC in water (9/0.5/0.5/90), read-out: AUC24h): 144 µM·h |
| NCC1(CC(=O)O)CCCCC1 [Gabapentin, reference compound] | – | – | – | – | – | – | – | – | – | – | – | – | – | – | – | – | – | – | – | – | 50% response threshold, 1 h ([4]; 1 h after administration): B (a 50% threshold of ≥6 and <8 grams); 50% response threshold, 2 h ([4]; 2 h after administration): A (a 50% threshold of ≥8 grams); 50% response threshold, 4 h ([4]; 4 h after administration): A (a 50% threshold of ≥8 grams) |
| CC(C(=O)O)c1cccc(C(=O)c2ccccc2)c1 (stereo not shown) [Ketoprofen, reference compound] | – | – | – | – | – | – | – | – | – | – | – | – | – | – | – | – | – | – | – | – | cumulative pain score, 4 h ([5]; 4 h post-dosing): B (>11 and ≤16); cumulative pain score, 24 h ([5]; 24 h post-dosing): A (a cumulative pain score of ≤11) |
